Tested on: GDF8 signaling (p-SMAD-3 (Ser423/425))
Test: AlphaScreen SureFire SMAD3 (p-Ser423/425) assay, GDF8-stimulated cells (GDF pSMAD)
Assay type: cell-based
Details: MPC11; GDF8-stimulated; p-SMAD3 AlphaScreen; read-out: GDF pSMAD (MPC11) (inhibition of GDF8 signaling)
Excerpt: Biological Example 1: AlphaScreen® SureFire® SMAD3 (p-Ser423/425) Assay
The p-SMAD-3 (Ser423/425) SureFire® assay has been designed to measure the phosphorylation of endogenous cellular p-SMAD-3 (Ser423/425) in cell lysates and is a system for the screening of both modulators of receptor activation (e.g. agonists and antagonists) as well as agents acting intracellularly, such as small molecule inhibitors of upstream events. The assay will measure p-SMAD-3 (Ser423/425) activation by either cloned or endogenous receptors, and can be applied to primary cells.
P-SMAD-3 (Ser423/425) SureFire® Assay Protocols
Step A: Preparation of Buffers
1× Lysis buffer: 1 ml of 5× Lysis buffer was diluted with 4 ml of sterile water. After dilution, excess 1× Lysis buffer can be frozen and thawed up to 5 times without loss in activity.
Activation buffer: The buffer was warmed slowly to 37° C. and gently mixed to re-suspend. Activation buffer can be stored at room temperature with no loss in activity.
Reaction buffer: The buffer was kept at 4° C. while in use.
AlphaScreen® Protein A IgG Kit: The kit was stored at 4° C. in the dark.
Reaction buffer+Activation buffer+AlphaScreen® Acceptor beads: Reaction buffer (40 parts), Activation Buffer (10 parts) and Acceptor beads (1 part) were mixed and the mixture was stored at room temperature and used the same day. Mixture was added to 384-well plates; excess mixture was discarded.
Dilution buffer+AlphaScreen® Donor beads: Dilution buffer (20 parts) and Donor beads (1 part) were mixed and the mixture was stored at room temperature and used the same day. Excess mixture was discarded.
Assay control samples: After reconstitution in 250 μl of water, lysates were at −20° C. in single use aliquots.
Step B: Preparation of Samples and Cells
96-well Assay Protocol for 293FT and RMS13 adherent cells can be carried out manually or in high throughput with liquid handling robots.
The cells (80 μL of cells for 96 well plates) were plated in collagen coated tissue culture plates in RPMI or FreeStyle medium (Invitrogen) and incubated overnight. For manual analysis, 6 plates for GDF8, 6 plates for TGFβ, and optionally 6 plates for AlkSca(ALK5 constitutively active) were used.
The compound dilution plates were prepared as follows: 12 μL of DMSO was transferred into first column of 96-well plate, and 16 μL of DMSO was transferred into columns 2-12 of the 96-well plate. 12 μL of compound solution was transferred into first column of the DMSO-containing 96-well plate. Three-fold dilution was performed up to column 10 of the DMSO-containing 96-well plate.
Step C: Treatment and Analysis
The plate containing cells were treated with compounds for about 10 minutes, and then ligand was added. GDF8 or TGFb was added to plates to stimulate. 293FL cells were stimulated for 90 minutes at 37° C.; and RMS13 cells were stimulated for 60 minutes at 37° C. The medium was then removed from the cells, and 1× Lysis Buffer (about 25 μL) was added and the plate was gently agitated on plate shaker for 5-10 minutes.
The lysate (5 μL) was then placed into 384-well shallow plates avoiding the generation of bubbles. To this, the Reaction Buffer+Activation Buffer+AlphaScreen® Acceptor beads mixture (5 μL) was added. The plate was sealed with adhesive cover and shielded from light (e.g., with metal foil), and agitated gently on plate shaker for 2 hours at room temperature.
Dilution buffer+AlphaScreen® Donor beads (2 μL) was then added, and the plate was intubated on the plate shaker for an additional 1½ hours. After completion, the plate was read on Synergy-4 or Enspire plate reader, using AlphaScreen® pSMAD3® settings.
Representative results for inhibition of GDF8 signaling are shown in Table 2(data=GDF pSMAD (MPC11) (μM)): […]

Row | IC50 | Compound
1 | 0.119 µM | Nc1ncnc2ccc(-c3cccnc3-c3cc(Cl)c(F)cc3F)cc12 [compound 819, 6-(2-(5-Chloro-2,4-difluorophenyl)pyridin-3-yl)quinazolin-4-amine]
2 | 18.5 µM | Cc1cc(-c2ncccc2-c2ccc3ncn(CCCN4CCN(C)CC4)c3c2)ccc1F [Compound 40, 6-(2-(4-Fluoro-3-methylphenyl)pyridin-3-yl)-1-(3-(4-methylpiperazin-1-yl)propyl)-1H-benzo[d]imidazole]

Same assay, conditions: Mus musculus, MPC-11, GDF8-stimulated pSMAD3, MPC11; tested as the salt form given; read-out: GDF pSMAD (MPC11) (μM), inhibition of GDF8 signaling

Row | IC50 | Compound
3 | 0.309 µM | Nc1ncnc2ccc(-c3cccnc3-c3ccc4occc4c3)cc12 [compound 1083]
4 | 3.33 µM | COc1ccc(Cl)c(-c2ncccc2-c2ccc3ncnc(N)c3c2)c1 [compound 1011, 6-(2-(2-chloro-5-methoxyphenyl)pyridin-3-yl)quinazolin-4-amine]
5 | 1.58 µM | Fc1ccc(Cl)cc1-c1ncccc1-c1ccc2ncnc(Nc3cn[nH]c3)c2c1 [compound 1033, 6-(2-(5-chloro-2-fluorophenyl)pyridin-3-yl)-N-(1H-pyrazol-4-yl)quinazolin-4-amine]

Same assay, conditions: Mus musculus, MPC-11, MPC11; GDF8-stimulated; p-SMAD3 AlphaScreen; read-out: GDF pSMAD (MPC11) (inhibition of GDF8 signaling)

Row | Compound | IC50
6 | Cc1cccc(-c2ncccc2-c2ccc3ncn(C(C)C)c3c2)c1 [compound 47] | 8.23 µM
7 | Oc1cccc(-c2ncccc2-c2ccc3[nH]ncc3c2)c1 [Compound 120, 3-(3-(1H-Indazol-5-yl)pyridin-2-yl)phenol] | 0.363 µM
8 | Cc1cccc(-c2ncccc2-c2ccc3ncn(CCN4CCOCC4)c3c2)c1 [Compound 36, 1-(2-Morpholinoethyl)-6-(2-m-tolylpyridin-3-yl)-1H-benzo[d]imidazole] | 19.7 µM
9 | Cc1cc(-c2ncc(-c3ccc(C(N)=O)cc3)cc2-c2ccc3ncsc3c2)ccc1F [compound 318, 4-(5-(Benzo[d]thiazol-6-yl)-6-(4-fluoro-3-methylphenyl)pyridin-3-yl)benzamide] | 1.3 µM
10 | Cc1cc(-c2ncccc2-c2ccn3ncc(C(=O)N[C@@H]4CN5CCC4CC5)c3c2)ccc1F [compound 792, (S)-5-(2-(4-Fluoro-3-methylphenyl)pyridin-3-yl)-N-(quinuclidin-3-yl)pyrazolo[1,5-a]pyridine-3-carboxamide] | 2.43 µM
11 | Cc1cccc(-c2ncc(NS(C)(=O)=O)cc2-c2ccc3[nH]ncc3c2)c1 [Compound 32, N-(5-(1H-Indazol-5-yl)-6-m-tolylpyridin-3-yl) methanesulfonamide] | 2.8 µM
12 | Nc1ncnc2ccc(-c3cccnc3-c3cccc(C4CC4)c3)cc12 [compound 411, 6-(2-(3-Cyclopropylphenyl)pyridin-3-yl)quinazolin-4-amine] | 0.0725 µM
13 | Nc1ccc(-c2ccc3ncsc3c2)c(-c2cccc(C3CC3)c2)n1 [Compound 28, 5-(Benzo[d]thiazol-6-yl)-6-(3-cyclopropylphenyl)pyridin-2-amine] | 1.75 µM
14 | Cc1c(Cl)cccc1-c1ncccc1-c1ccc2ncnc(N)c2c1 [compound 464, 6-(2-(3-Chloro-2-methylphenyl)pyridin-3-yl)quinazolin-4-amine] | 3.96 µM
15 | Cc1cc(-c2ncc(NCc3ccc(O)c(O)c3)cc2-c2ccc3ncsc3c2)ccc1F [compound 368, 4-(((5-(Benzo[d]thiazol-6-yl)-6-(4-fluoro-3-methylphenyl)pyridin-3-yl)amino)methyl)benzene-1,2-diol] | 0.189 µM
16 | Cc1cc(-c2ncc(Nc3ccc(C(N)=O)cc3)cc2-c2ccc3ncsc3c2)ccc1F [compound 310, 4-((5-(Benzo[d]thiazol-6-yl)-6-(4-fluoro-3-methylphenyl)pyridin-3-yl)amino)benzamide] | 1.14 µM
17 | Cc1cc(-c2ncccc2-c2ccc3ncc(C(=O)NCCCN4CCCCC4)n3c2)ccc1F [compound 611, 6-(2-(4-Fluoro-3-methylphenyl)pyridin-3-yl)-N-(3-(piperidin-1-yl)propyl)imidazo[1,2-a]pyridine-3-carboxamide] | 0.114 µM
18 | Cc1cc(-c2ncccc2-c2ccc3ncnc(Nc4ccc(C(N)=O)cc4)c3c2)ccc1F [compound 406, 4-((6-(2-(4-Fluoro-3-methylphenyl)pyridin-3-yl)quinazolin-4-yl)amino)benzamide] | 2.79 µM
19 | Cc1cc(-c2ncccc2-c2ccc3ncnc(NC4CC4)c3c2)ccc1F [compound 404, N-Cyclopropyl-6-(2-(4-fluoro-3-methylphenyl)pyridin-3-yl)quinazolin-4-amine] | 1.03 µM
20 | Cc1cc(-c2ncccc2-c2ccc3ncc(CO)n3c2)ccc1F [compound 565, (6-(2-(4-Fluoro-3-methylphenyl)pyridin-3-yl)imidazo[1,2-a]pyridin-3-yl)methanol] | 0.406 µM
21 | Cc1cccc(-c2ncccc2-c2ccc3nccn3c2)c1 [Compound 166, 6-(2-m-Tolylpyridin-3-yl)imidazo[1,2-a]pyridine] | 0.109 µM
22 | Cc1cc(-c2ncccc2-c2ccc3ncc(C(=O)Nc4cccc(C(N)=O)c4)n3c2)ccc1F [compound 619, N-(3-Carbamoylphenyl)-6-(2-(4-fluoro-3-methylphenyl)pyridin-3-yl)imidazo[1,2-a]pyridine-3-carboxamide] | 0.544 µM
23 | Cn1cnc2ccc(-c3cccnc3-c3cccc(O)c3)cc2c1=O [compound 379, 6-(2-(3-Hydroxyphenyl)pyridin-3-yl)-3-methylquinazolin-4(3H)-one] | 0.395 µM
24 | COc1cnc(-c2ccc(F)c(C)c2)c(-c2ccc3[nH]ncc3c2)c1 [Compound 8, 5-(2-(4-Fluoro-3-methylphenyl)-5-methoxypyridin-3-yl)-1H-indazole] | 5.35 µM
25 | Cc1cc(-c2ncccc2-c2ccc3ncc(C(=O)NCCN4CCN(C)CC4)n3c2)ccc1F [compound 590, 6-(2-(4-Fluoro-3-methylphenyl)pyridin-3-yl)-N-(2-(4-methylpiperazin-1-yl)ethyl)imidazo[1,2-a]pyridine-3-carboxamide] | 0.514 µM

The next lines start with the values.

Row | IC50 | Compound
26 | 0.105 µM | Cc1cnc2ccc(-c3cccnc3-c3cc(Cl)c(F)cc3F)cn12 [compound 766, 6-(2-(5-Chloro-2,4-difluorophenyl)pyridin-3-yl)-3-methylimidazo[1,2-a]pyridine]
27 | 4.04 µM | Cc1cc(-c2ncccc2-c2ccc3[nH]nc(N)c3c2)ccc1F [compound 788, 5-(2-(4-Fluoro-3-methylphenyl)pyridin-3-yl)-1H-indazol-3-amine]
28 | 1.83 µM | Clc1ccc(Cl)c(-c2ncccc2-c2ccc3nc[nH]c3c2)c1 [compound 871, 6-(2-(2,5-Dichlorophenyl)pyridin-3-yl)-1H-benzo[d]imidazole]
29 | 14.6 µM | Nc1noc2ccc(-c3cccnc3-c3cccc(Cl)c3)cc12 [compound 799, 5-(2-(3-Chlorophenyl)pyridin-3-yl)benzo[d]isoxazol-3-amine]
30 | 0.153 µM | Cn1cnc2ccc(-c3cccnc3-c3cccc(Cl)c3)cc21 [compound 769, 6-(2-(3-Chlorophenyl)pyridin-3-yl)-1-methyl-1H-benzo[d]imidazole]
31 | 0.539 µM | Cc1cc(-c2ncccc2-c2ccc3ncc(C(=O)NCCCN)n3c2)ccc1F [compound 682, N-(3-Aminopropyl)-6-(2-(4-fluoro-3-methylphenyl)pyridin-3-yl)imidazo[1,2-a]pyridine-3-carboxamide]
32 | 2.35 µM | N#Cc1cnn2ccc(-c3cccnc3-c3ccc(F)c(Cl)c3)nc12 [compound 900, 5-(2-(3-Chloro-4-fluorophenyl)pyridin-3-yl)pyrazolo[1,5-a]pyrimidine-3-carbonitrile]
33 | 5.86 µM | c1ccc(-c2ncccc2-c2ccc3ncnn3c2)cc1 [compound 781, 6-(2-Phenylpyridin-3-yl)-[1,2,4]triazolo[1,5-a]pyridine]

Source: patent US10858335B2 (Rigel Pharmaceuticals, Inc., priority 2014, dated 2020)
